Measurements taken from patent publication US7985753B2, “Substituted pyrazolo[1,5-A]pyrimidines as metabotropic glutamate receptor modulators” (MERZ PHARMA GmbH & Co. KGaA, priority 2006, dated 2011).
pIC50: −log10 of the molar value.

Target: T1, transmembrane allosteric modulatory sites of mGluR5 receptors in cortical membranes (Rattus norvegicus, UniProt P31424)
T1 construct: from tissue; host or cells: rat brain cortex membranes
Experiment: [^3H]-MPEP binding assay in rat cortical membranes
Settings: read-out: mGluR5_M_MPEP_r_CTX_IC50
Procedure: Male Sprague-Dawley rats (200-250 g) are decapitated and their brains are removed rapidly. The cortex is dissected and homogenized in 20 volumes of ice-cold 0.32 M sucrose using a glass-Teflon homogenizer. The homogenate is centrifuged at 1000×g for 10 minutes. The pellet is discarded and the supernatant centrifuged at 20,000×g for 20 minutes. The resulting pellet is re-suspended in 20 volumes of distilled water and centrifuged for 20 minutes at 8000×g. Then the supernatant and the buffy coat are centrifuged at 48,000×g for 20 minutes in the presence of 50 mM Tris-HCl, pH 8.0. The pellet is then re-suspended and centrifuged two to three more times at 48,000×g for 20 minutes in the presence of 50 mM Tris-HCl, pH 8.0. All centrifugation steps are carried out at 4° C. After resuspension in 5 volumes of 50 mM Tris-HCl, pH 8.0 the membrane suspension is frozen rapidly at −80° C.
On the day of assay the membranes are thawed and washed four times by resuspension in 50 mM Tris-HCl, pH 8.0 and centrifugation at 48,000×g for 20 minutes and finally re-suspended in 50 mM Tris-HCl, pH 7.4. The amount of protein in the final membrane preparation (500-700 μg/ml) is determined according to the method of Lowry (Lowry O. H. et al. 1951. J. Biol. Chem. 193, 256-275).
Alternatively, assays are performed with [^3H]-MMPEP (2-(3-methoxyphenylethynyl)-6-methylpyridine hydrochloride) as radioligand. The incubations are continued at room temperature for 60 minutes (equilibrium is achieved under the conditions used). […] Incubations are terminated using a Millipore filter system. The samples are rinsed twice with 4 ml of ice-cold assay buffer over glass fibre filters (Schleicher & Schuell, Germany) under a constant vacuum. Following separation and rinse, the filters are placed into scintillation liquid (5 ml Ultima Gold, Perkin Elmer, Germany) and radioactivity retained on the filters is determined with a conventional liquid scintillation counter (Canberra Packard, Germany).

T1 sequence (P31424 21-1203): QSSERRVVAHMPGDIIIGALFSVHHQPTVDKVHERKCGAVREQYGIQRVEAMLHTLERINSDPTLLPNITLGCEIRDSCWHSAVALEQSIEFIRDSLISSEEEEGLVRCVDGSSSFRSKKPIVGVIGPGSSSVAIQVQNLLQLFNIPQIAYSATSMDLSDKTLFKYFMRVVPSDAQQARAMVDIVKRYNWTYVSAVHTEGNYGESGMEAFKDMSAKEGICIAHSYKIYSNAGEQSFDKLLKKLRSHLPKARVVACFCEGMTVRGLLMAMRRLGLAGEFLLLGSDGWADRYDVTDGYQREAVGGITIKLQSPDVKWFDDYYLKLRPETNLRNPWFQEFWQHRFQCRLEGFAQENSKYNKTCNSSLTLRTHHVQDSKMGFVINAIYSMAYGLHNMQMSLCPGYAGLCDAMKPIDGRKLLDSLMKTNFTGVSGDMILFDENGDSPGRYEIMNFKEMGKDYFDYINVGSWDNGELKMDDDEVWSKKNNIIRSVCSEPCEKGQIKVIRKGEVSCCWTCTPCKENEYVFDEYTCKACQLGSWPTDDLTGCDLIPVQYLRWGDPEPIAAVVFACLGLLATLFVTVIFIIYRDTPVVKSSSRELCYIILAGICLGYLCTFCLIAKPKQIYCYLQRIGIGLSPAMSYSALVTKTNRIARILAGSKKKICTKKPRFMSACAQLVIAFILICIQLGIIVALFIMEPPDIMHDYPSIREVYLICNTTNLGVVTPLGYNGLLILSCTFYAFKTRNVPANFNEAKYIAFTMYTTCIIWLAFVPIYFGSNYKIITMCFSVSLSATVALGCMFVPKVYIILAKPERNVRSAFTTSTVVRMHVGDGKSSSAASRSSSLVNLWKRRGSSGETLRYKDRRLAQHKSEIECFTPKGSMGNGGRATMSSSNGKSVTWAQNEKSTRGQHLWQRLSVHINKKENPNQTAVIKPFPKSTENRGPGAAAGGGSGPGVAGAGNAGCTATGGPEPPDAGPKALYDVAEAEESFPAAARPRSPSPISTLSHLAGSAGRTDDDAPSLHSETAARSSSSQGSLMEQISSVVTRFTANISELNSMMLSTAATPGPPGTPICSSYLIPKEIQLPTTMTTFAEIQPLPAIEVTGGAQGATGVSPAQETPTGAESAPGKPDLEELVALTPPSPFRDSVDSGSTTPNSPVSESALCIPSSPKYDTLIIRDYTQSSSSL

Row | pIC50 | SMILES
1 | 7.57 | COc1ccc2c(c1)CCN(C(=O)c1cc3ncc(Cl)cn3n1)C2C (centres unmarked) [drawing 460, (6-Chloro-pyrazolo[1,5-a]pyrimidin-2-yl)-(6-methoxy-1-methyl-3,4-dihydro-1H-isoquinolin-2-yl)-methanone]
2 | 7.68 | CC1c2cccc(Br)c2CCN1C(=O)c1cc2ncc(Cl)cn2n1 (centres unmarked) [drawing 461, (5-Bromo-1-methyl-3,4-dihydro-1H-isoquinolin-2-yl)-(6-chloro-pyrazolo[1,5-a]pyrimidin-2-yl)-methanone]
3 | 7.70 | COc1ccc2c(c1)CCN(C(=O)c1cc3ncc(Br)cn3n1)C2C (centres unmarked) [drawing 459, (6-Bromo-pyrazolo[1,5-a]pyrimidin-2-yl)-(6-methoxy-1-methyl-3,4-dihydro-1H-isoquinolin-2-yl)-methanone]
4 | 8.00 | CC1c2cccc(F)c2CCN1C(=O)c1cc2ncc(Br)cn2n1 (centres unmarked) [drawing 455, (6-Bromo-pyrazolo[1,5-a]pyrimidin-2-yl)-(5-fluoro-1-methyl-3,4-dihydro-1H-isoquinolin-2-yl)-methanone]
5 | 7.52 | CC1c2cc(F)ccc2CCN1C(=O)c1cc2ncc(Br)cn2n1 (centres unmarked) [drawing 454, (6-Bromo-pyrazolo[1,5-a]pyrimidin-2-yl)-(7-fluoro-1-methyl-3,4-dihydro-1H-isoquinolin-2-yl)-methanone]
6 | 7.40 | CC1c2ccc(F)cc2CCN1C(=O)c1cc2ncc(Cl)cn2n1 (centres unmarked) [drawing 456, (6-Chloro-pyrazolo[1,5-a]pyrimidin-2-yl)-(6-fluoro-1-methyl-3,4-dihydro-1H-isoquinolin-2-yl)-methanone]
7 | 6.97 | O=C(c1cc2ncc(Cl)cn2n1)N1CCc2ncc(Br)cc2C1 [drawing 462, (3-Bromo-7,8-dihydro-5H-[1,6]naphthyridin-6-yl)-(6-chloro-pyrazolo[1,5-a]pyrimidin-2-yl)-methanone]
8 | 6.93 | CC1CN(C(=O)c2cc3ncc(Cl)cn3n2)C(C)c2ccccc21 (centres unmarked) [drawing 457, (6-Chloro-pyrazolo[1,5-a]pyrimidin-2-yl)-(1,4-dimethyl-3,4-dihydro-1H-isoquinolin-2-yl)-methanone]
9 | 7.22 | COc1cc2c(cc1O)CCN(C(=O)c1cc3ncc(Br)cn3n1)C2C (centres unmarked) [drawing 453, 2-[(6-bromopyrazolo[1,5-a]pyrimidin-2-yl)carbonyl]-7-methoxy-1-methyl-1,2,3,4-tetrahydro-6-isoquinolinol]

Target: metabotropic glutamate receptor (mGluR5) (Homo sapiens, UniProt P41594)
Experiment: Activity as mGluR5 modulator, test not specified
Settings: not given

Chain of metabotropic glutamate receptor (mGluR5) (P41594 21-1212): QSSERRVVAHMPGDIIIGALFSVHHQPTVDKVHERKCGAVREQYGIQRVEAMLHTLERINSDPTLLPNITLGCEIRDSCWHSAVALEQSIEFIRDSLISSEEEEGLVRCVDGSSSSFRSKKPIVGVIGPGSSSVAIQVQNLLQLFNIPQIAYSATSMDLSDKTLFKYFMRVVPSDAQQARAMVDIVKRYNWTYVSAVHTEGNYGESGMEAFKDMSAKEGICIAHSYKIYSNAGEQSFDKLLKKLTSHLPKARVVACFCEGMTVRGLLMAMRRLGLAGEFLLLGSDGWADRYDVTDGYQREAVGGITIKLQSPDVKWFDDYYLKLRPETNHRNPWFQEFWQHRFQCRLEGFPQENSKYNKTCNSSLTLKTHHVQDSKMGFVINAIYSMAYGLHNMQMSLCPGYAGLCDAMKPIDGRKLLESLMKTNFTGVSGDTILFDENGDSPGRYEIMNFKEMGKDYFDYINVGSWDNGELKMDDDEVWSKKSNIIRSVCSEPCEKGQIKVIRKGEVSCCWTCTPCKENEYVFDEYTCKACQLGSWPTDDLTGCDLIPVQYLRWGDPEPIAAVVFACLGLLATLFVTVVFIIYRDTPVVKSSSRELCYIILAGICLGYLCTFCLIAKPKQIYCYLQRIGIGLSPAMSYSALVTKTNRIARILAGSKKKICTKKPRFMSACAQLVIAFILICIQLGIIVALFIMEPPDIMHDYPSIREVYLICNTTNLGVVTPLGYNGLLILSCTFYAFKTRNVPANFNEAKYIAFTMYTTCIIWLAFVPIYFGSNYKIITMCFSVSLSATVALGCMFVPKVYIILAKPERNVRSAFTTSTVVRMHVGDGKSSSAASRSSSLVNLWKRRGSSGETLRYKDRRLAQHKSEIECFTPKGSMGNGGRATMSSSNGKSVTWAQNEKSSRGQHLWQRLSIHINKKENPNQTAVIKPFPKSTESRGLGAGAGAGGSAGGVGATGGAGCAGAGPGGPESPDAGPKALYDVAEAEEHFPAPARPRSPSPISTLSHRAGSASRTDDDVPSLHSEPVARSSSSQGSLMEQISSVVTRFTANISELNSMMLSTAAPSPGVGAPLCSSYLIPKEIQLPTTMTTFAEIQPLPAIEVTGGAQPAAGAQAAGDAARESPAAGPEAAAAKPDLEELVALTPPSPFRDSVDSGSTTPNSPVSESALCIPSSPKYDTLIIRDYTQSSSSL

Row | activity as metabotropic glutamate receptor (mGluR5) modulator | SMILES
10 | no particular activity | O=C(c1cc2ncc(Br)cn2n1)N1CCCCC1 [Example B308, (6-Bromopyrazolo[1,5-a]pyrimidin-2-yl)-piperidin-1-yl-methanone]
11 | no particular activity | O=C(c1cc2ncc(Br)cn2n1)N1CCOCC1 [Example B310, (6-Bromopyrazolo[1,5-a]pyrimidin-2-yl)-morpholin-4-yl-methanone]
